From patent publication US6124323A, “4-substituted piperidine analogs and their use as subtype selective NMDA receptor antagonists” (Warner-Lambert Company, priority 1998, dated 2000)
pIC50: −log10 of the molar value. Where a name gives a salt, the structure may show the parent alone.

Legend:
[1] = system: d-amphetamine induced stimulation; settings: injected into rat nucleus accumbens or striatum; cited from earlier work
[2] = system: PCP and MK801-induced behavioral arousal; settings: in vivo; cited from earlier work
[3] = system: Maximal Electroshock-induced Seizures; experiment: Maximal electroshock-induced seizures (MES); format: in vivo; settings: Mus musculus; mice; 50 mA, 60 pulses/sec, 1 sec
Source text: Seizures were induced by application of current (50 mA, 60 pulses/sec, 0.8 sec pulse width, 1 sec duration, d.c.) through saline-coated corneal electrodes using a Ugo Basile ECT device (Model 7801). […] A tonic seizure was defined as a hindlimb extension in excess of 90 degrees from the plane of the body.

[4] = molecular target: T1, NMDA receptor subunits 1A/2C (Rattus norvegicus, UniProt P35439+Q00961); experiment: Electrophysiological assay at NMDA receptor subunits expressed in Xenopus oocytes, 1A/2C; format: cell-based; settings: Xenopus oocytes; glutamate 100 μm and glycine 1-100 μm; read-out: Subunits IC50, 1A/2C
T1 construct: expressed in transfected cells; host or cells: Xenopus laevis oocytes (cRNA injection; clones from Dr. P. H. Seeburg)
Procedure, shortened: (§1)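 Two-electrode voltage clamp of Xenopus oocytes injected with rat NR1A plus NR2A, 2B or 2C cRNA (1:1), recorded 3–21 days post-injection in Ringer's, pH 7.4. Currents evoked by glutamate (100 μm) with glycine (1–100 μm); antagonist applied by bath perfusion at rising concentrations, IC50 from logistic fit or linear regression for incomplete curves.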

[5] = molecular target: T2, NMDA receptor subunits 1A/2A (Rattus norvegicus, UniProt P35439+Q00959); experiment: Electrophysiological assay at NMDA receptor subunits expressed in Xenopus oocytes, 1A/2A; format: cell-based; settings: glutamate 100 μm and glycine 1-100 μm
T2 construct: expressed in transfected cells; host or cells: Xenopus laevis oocytes (cRNA injection; clones from Dr. P. H. Seeburg)
Procedure, shortened: as §1

[6] = molecular target: T3, NMDA receptor subunits 1A/2B (Rattus norvegicus, UniProt P35439+Q00960); experiment: Electrophysiological assay at NMDA receptor subunits expressed in Xenopus oocytes, 1A/2B; format: cell-based; settings: Xenopus oocytes; glutamate 100 μm and glycine 1-100 μm; read-out: Subunits IC50, 1A/2B
T3 construct: expressed in transfected cells; host or cells: Xenopus laevis oocytes (cRNA injection; clones from Dr. P. H. Seeburg)
Procedure, shortened: as §1

[7] = system: focal ischemia (MCA occlusion); experiment: Induction of focal ischemia (MCA occlusion), infarct volume; format: in vivo, rats; settings: for Mean Infarct Volume: mean ± S.E.M.
Method: Induction of Focal Ischemia
Rats were intubated and maintained under anesthesia with 2% of halothane. Body temperature was maintained at 37.5° C. during surgery by means of a warming pad and a rectal probe connected to the control unit. The common carotid arteries (CCA) were isolated, and a loose silk ligature was placed around each CCA. A vertical skin incision was made between the left orbit and the auditory canal. The posterior part of the zygoma was removed and a small opening (2.0-2.5 mm) was drilled dorsorostrally to the foramen ovale under constant saline irrigation. The dura was opened with a microsurgical hook and the brain gently retracted to expose the bifurcation of the internal carotid artery and the middle cerebral artery (MCA). The ipsilateral CCA was ligated and the MCA coagulated from its origin to the olfactory tract. The contralateral CCA was occluded with an arterial clip. All cuts were sutured and an i.v. line was connected to an infusion pump for delivery of the compound of the invention. Two hours after MCA occlusion, the clip on the contralateral CCA was removed. Rectal temperature was measured 2 hours after MCA occlusion (MCA-0).

micturition = settings: rat; cited from earlier work
anxiety = settings: in vivo; cited from earlier work
Parkinson's disease = settings: at plasma levels leading to NMDA receptor antagonism; cited from earlier work

T3 sequence (Q00960 27-1482, other chains not shown): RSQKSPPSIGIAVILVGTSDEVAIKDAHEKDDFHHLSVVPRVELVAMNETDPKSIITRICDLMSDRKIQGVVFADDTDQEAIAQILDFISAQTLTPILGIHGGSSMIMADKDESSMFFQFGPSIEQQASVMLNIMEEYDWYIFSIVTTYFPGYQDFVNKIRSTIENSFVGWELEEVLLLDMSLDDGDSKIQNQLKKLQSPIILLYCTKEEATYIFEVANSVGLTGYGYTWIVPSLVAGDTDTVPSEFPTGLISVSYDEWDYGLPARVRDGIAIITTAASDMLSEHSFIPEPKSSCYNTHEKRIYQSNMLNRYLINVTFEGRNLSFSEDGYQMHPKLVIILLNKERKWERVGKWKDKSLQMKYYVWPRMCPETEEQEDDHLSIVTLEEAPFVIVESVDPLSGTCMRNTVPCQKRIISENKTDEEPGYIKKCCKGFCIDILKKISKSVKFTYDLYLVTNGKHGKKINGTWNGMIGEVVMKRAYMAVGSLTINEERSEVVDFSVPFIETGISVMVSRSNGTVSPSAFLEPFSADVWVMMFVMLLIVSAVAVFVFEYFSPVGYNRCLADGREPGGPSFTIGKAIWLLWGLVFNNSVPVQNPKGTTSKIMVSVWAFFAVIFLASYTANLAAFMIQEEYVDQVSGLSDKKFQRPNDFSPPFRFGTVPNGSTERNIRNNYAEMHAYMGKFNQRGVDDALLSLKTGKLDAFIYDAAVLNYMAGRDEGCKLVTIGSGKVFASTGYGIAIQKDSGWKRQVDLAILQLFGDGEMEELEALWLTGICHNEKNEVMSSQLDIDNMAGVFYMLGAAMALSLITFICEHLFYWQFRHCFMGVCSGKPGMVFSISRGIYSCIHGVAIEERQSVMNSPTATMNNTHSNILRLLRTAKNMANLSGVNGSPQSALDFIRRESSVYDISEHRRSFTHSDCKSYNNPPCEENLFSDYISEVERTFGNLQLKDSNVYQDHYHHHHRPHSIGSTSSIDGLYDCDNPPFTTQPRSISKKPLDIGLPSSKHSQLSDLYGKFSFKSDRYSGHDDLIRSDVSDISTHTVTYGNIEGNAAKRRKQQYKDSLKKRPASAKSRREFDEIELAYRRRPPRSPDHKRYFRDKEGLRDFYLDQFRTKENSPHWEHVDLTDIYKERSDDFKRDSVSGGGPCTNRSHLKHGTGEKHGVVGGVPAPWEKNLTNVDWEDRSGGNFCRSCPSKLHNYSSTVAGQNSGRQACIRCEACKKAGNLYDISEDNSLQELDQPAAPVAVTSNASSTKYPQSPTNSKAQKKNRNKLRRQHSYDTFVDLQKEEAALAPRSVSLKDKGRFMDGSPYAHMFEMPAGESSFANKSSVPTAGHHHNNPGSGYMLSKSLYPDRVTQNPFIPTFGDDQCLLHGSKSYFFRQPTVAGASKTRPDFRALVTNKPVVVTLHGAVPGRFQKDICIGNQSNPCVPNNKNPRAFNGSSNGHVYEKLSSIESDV
T2 sequence (Q00959 20-1464 limits assumed, other chains not shown): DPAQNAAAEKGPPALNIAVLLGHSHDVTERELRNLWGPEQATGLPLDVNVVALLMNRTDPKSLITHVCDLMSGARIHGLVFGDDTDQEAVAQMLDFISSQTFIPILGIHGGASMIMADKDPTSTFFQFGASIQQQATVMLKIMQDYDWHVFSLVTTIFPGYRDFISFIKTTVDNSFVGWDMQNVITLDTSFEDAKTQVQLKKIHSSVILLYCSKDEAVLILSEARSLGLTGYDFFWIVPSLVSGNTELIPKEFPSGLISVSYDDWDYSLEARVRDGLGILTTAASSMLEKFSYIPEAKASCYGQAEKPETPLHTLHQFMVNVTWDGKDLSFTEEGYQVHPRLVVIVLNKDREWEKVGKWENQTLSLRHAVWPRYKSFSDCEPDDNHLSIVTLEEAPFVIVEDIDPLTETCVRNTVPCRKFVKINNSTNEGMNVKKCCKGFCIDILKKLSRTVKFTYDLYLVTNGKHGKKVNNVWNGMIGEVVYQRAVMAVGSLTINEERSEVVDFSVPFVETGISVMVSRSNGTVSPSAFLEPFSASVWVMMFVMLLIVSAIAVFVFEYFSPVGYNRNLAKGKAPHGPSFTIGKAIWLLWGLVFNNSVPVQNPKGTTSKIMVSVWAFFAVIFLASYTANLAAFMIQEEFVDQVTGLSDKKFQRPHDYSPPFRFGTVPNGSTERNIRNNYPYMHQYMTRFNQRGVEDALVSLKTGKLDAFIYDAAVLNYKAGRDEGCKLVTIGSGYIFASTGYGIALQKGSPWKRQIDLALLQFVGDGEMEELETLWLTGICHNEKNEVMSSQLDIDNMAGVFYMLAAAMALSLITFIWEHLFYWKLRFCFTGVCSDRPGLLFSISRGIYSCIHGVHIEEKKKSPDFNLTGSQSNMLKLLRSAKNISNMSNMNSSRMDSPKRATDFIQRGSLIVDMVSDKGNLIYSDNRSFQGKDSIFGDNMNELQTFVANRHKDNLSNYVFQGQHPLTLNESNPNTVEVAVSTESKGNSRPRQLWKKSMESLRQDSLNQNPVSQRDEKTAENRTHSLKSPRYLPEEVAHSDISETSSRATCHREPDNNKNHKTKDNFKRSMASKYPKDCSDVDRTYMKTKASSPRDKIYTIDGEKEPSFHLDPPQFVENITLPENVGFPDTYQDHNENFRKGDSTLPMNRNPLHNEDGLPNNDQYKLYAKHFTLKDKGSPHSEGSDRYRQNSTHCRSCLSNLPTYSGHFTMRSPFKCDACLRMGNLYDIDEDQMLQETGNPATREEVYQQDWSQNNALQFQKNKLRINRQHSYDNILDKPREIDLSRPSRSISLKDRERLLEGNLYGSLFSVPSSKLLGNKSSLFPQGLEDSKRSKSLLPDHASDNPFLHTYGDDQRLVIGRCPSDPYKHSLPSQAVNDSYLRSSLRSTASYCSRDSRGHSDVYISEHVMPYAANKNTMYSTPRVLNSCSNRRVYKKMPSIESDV
T1 sequence (Q00961 20-1237, other chains not shown): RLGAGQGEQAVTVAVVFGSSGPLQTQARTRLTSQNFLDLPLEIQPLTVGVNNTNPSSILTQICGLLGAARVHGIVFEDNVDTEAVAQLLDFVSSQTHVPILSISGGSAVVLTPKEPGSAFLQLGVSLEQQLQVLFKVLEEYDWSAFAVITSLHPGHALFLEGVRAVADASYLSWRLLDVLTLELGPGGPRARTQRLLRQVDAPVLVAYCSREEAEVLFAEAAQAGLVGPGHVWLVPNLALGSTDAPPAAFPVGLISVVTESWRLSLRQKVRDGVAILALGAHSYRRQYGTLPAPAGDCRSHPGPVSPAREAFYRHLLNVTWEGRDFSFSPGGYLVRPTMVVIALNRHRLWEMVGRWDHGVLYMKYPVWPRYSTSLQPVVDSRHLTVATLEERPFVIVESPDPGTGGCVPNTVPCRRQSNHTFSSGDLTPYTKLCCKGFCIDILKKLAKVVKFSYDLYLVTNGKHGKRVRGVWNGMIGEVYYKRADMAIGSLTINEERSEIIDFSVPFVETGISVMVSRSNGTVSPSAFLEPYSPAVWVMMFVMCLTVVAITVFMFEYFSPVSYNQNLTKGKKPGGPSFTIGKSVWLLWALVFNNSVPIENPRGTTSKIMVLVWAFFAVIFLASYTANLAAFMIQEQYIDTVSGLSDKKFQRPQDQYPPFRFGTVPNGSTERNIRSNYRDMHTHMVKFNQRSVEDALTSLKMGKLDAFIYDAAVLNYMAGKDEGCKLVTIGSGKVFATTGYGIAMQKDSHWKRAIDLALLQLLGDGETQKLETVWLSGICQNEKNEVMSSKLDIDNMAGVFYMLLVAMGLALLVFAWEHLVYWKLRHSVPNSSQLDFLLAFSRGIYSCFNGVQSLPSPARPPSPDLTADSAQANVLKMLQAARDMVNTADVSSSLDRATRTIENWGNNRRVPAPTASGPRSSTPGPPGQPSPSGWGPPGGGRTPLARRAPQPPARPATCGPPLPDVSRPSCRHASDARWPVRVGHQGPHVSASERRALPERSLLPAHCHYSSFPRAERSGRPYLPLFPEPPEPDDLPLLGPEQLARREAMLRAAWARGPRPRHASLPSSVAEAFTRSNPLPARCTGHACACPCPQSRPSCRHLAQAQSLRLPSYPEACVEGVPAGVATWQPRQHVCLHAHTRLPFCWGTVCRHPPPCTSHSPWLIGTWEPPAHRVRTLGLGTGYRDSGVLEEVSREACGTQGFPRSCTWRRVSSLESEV

Row | SMILES | ED50 [3] [mg/kg] | pIC50 [4] | pIC50 [5] | pIC50 [6] | also measured
1 | O=C(O)c1cc(O)c2c(Cl)cc(Cl)cc2n1 [5,7-dichlorokynurenic acid] | – | – | – | – | antagonism of d-amphetamine induced stimulation [1]: selectively antagonize d-amphetamine induced stimulation when injected into rat nucleus accumbens but not in striatum
2 | N[C@@H]1CCN(O)C1=O [(+) HA-966] | – | – | – | – | antagonism of d-amphetamine induced stimulation [1]: selectively antagonize d-amphetamine induced stimulation when injected into rat nucleus accumbens but not in striatum; block of PCP and MK801-induced behavioral arousal [2]: block PCP and MK801-induced behavioral arousal
3 | c1ccc(CC2CCN(CCOc3ccccc3)CC2)cc1 [Ex. 1, 4-Benzyl-1-(2-phenoxyethyl)piperidine] | 2 | < 4.00 | < 4.00 | 6.10 | Mean Infarct Volume ([7]; Cortex, rats, 2.5 mg/Kg i.v. bolus then 1.75 mg/Kg for 22 hours, n = 12, vehicle 120.450 ± 20.166): 50.450 ± 11.428 mm^3; % of Ischemia Protection ([7]; Cortex, rats, 2.5 mg/Kg i.v. bolus then 1.75 mg/Kg for 22 hours, p = 0.0071): 58%; Mean Infarct Volume ([7]; Subcortex, rats, 2.5 mg/Kg i.v. bolus then 1.75 mg/Kg for 22 hours, n = 12, vehicle 74.462 ± 7.481): 67.400 ± 6.775 mm^3; % of Ischemia Protection ([7]; Subcortex, rats, 2.5 mg/Kg i.v. bolus then 1.75 mg/Kg for 22 hours, p = 0.4936): 9.5%; protection from ischemia ([7]; table 4 and FIG. 1, 2.5 mg/Kg i.v. bolus then 1.75 mg/Kg for 22 hours): significant protection from ischemia
4 | Fc1ccc(OCCN2CCC(Cc3ccc(Cl)cc3)CC2)cc1 [Ex. 25, 4-(4-Chlorobenzyl)-1-(2-(4-fluorophenoxy)ethyl)piperidine hydrobromide] | 4 | 4.10 | 4.22 | 6.00 | Mean Infarct Volume ([7]; Cortex, 10 mg/Kg i.v. bolus, n = 7, vehicle 114.936 ± 22.3): 41.857 ± 19.984 mm^3; % of Ischemia Protection ([7]; Cortex, 10 mg/Kg i.v. bolus, p = 0.0381): 64%; Mean Infarct Volume ([7]; Subcortex, 10 mg/Kg i.v. bolus, n = 7, vehicle 81.564 ± 5675): 43.343 ± 17.37 mm^3; % of Ischemia Protection ([7]; Subcortex, 10 mg/Kg i.v. bolus, p = .0320): 47%; protection from ischemia ([7]; Table 5 and FIG. 2, 10 mg/Kg i.v. bolus): significant protection from ischemia
5 | Oc1ccc(C2CCN(CCCCc3ccccc3)CC2)cc1 [Ex. 167, 4-(4-Hydroxyphenyl)-1-(4-phenylbutyl)piperidine] | 0.3 | 3.52 | 3.96 | 7.70 | –
6 | Cc1ccc(CC2CCN(CCOc3ccc(Cl)cc3)CC2)cc1.Cl [Ex. 168, 1-(2-(4-Chlorophenoxy)ethyl)-4-(4-methylbenzyl)piperidine hydrochloride] | 4 | < 3.52 | < 3.52 | 5.02 | –
7 | O=c1[nH]c2ccc(OCCCN3CCC(Cc4ccccc4)CC3)cc2[nH]1 [Ex. 170, 4-Benzyl-1-[3-(2-oxobenzimidazol-5-oxy)propyl]piperidine] | 10 | 3.64 | 4.21 | 7.40 | –
8 | S=c1[nH]c2ccc(OCCN3CCC(Cc4ccccc4)CC3)cc2[nH]1 [Ex. 171, 4-Benzyl-1-(2-(2-thioxobenzimidazol-5-oxy)ethyl)piperidine] | 5 | 3.77 | 4.14 | 7.40 | –
9 | Cc1ccc(CC2CCN(CCOc3ccc4[nH]c(=S)[nH]c4c3)CC2)cc1 [Ex. 174, 4-(4-Methylbenzyl)-1-(2-(2-thioxobenzimidazol-5-oxy)ethyl)piperidine] | 5 | 4.35 | 4.46 | 7.52 | –
10 | Fc1ccc(CC2CCN(CCOc3ccc4[nH]c(=S)[nH]c4c3)CC2)cc1 [Ex. 175, 4-(4-Fluorobenzyl)-1-(2-(2-thioxobenzimidazol-5-oxy)ethyl)piperidine] | 8 | 4.15 | 4.32 | 7.70 | –
11 | S=c1[nH]c2ccc(OCCN3CCC(Cc4ccc(Cl)cc4)CC3)cc2[nH]1 [Ex. 176, 4-(4-Chlorobenzyl)-1-(2-(2-thioxobenzimidazol-5-oxy)ethyl)piperidine] | 7.5 | 4.30 | 4.60 | 7.52 | –
12 | O=c1[nH]c2ccc(OCCN3CC=C(Cc4ccccc4)CC3)cc2[nH]1 [Ex. 177, 4-Benzyl-1-(2-(2-oxobenzimidazol-5-oxy)ethyl)-1,2,5,6-tetrahydropyridine] | 5 | 3.68 | 4.46 | 7.00 | –
13 | O=c1[nH]c2cc(OCCN3CCC(Cc4ccccc4)CC3)ccc2o1 [Ex. 181, 4-Benzyl-1-(2-(2-oxobenzoxazol-5-oxy)ethyl)piperidine] | 6 | 3.85 | 3.96 | 6.00 | –
14 | O=c1[nH]c2ccc(OCCN3CCC(Cc4ccccc4)CC3)cc2o1 [Ex. 182, 4-Benzyl-1-(2-(2-oxobenzoxazol-6-oxy)ethyl)piperidine] | > 20 | 3.68 | 4.37 | 6.00 | –
15 | Oc1ccc2cc(OCCN3CCC(Cc4ccccc4)CC3)ccc2c1 [Ex. 189, 4-Benzyl-1-(2-(2-hydroxynaphth-6-oxy)ethyl)piperidine] | 7 | 3.89 | 5.15 | 7.00 | –
16 | O=C1Cc2cc(OCCN3CCC(Cc4ccccc4)CC3)ccc2N1 [Ex. 194, 4-Benzyl-1-(2-(2-oxo-1,3-dihydroindol-5-oxy)ethyl)piperidine] | 2.5 | < 3.52 | < 3.52 | 7.22 | –
17 | C[C@]12N[C@H](Cc3ccccc31)c1ccccc12 [MK801] | – | – | – | – | frequency of micturition (micturition): increased the frequency of micturition in rat; effect in animal models of anxiety (anxiety): effective in a variety of animal models of anxiety
18 | NC12CC3CC(CC(C3)C1)C2 [amantadine] | – | – | – | – | antiparkinsonian-like activity in animals (Parkinson's disease): showed antiparkinsonian-like activity in animals
19 | CC12CC3CC(C)(C1)CC(N)(C3)C2 [memantine] | – | – | – | – | antiparkinsonian-like activity in animals (Parkinson's disease): showed antiparkinsonian-like activity in animals
